Data: patent US8435980B2 (AbbVie Inc., priority 2009, dated 2013)

What follows are molecules tested against T1, Cdc7 (BEV coexpressed huCDC7/DBF4) (Homo sapiens, UniProt O00311) (assay: Cdc7 enzyme inhibition assay ([33P]ATP, biotinylated peptide substrate, FlashPlate)). Conditions: Table 3; enzyme inhibition data (Ki).
T1 construct: made in house; host or cells: BEV (baculovirus expression vector) co-expression; insect cells are implied but no cell line is named
Format: biochemical
Method: Cdc7 (BEV coexpressed huCDC7/DBF4) is prepared internally. Cdc7 assays are conducted as follows with final concentrations as listed. […] Reactions are quenched after 1 hr by the addition of 90 μL stop buffer (50 mM EDTA, 2M NaCl). […] (Ki) for exemplary compounds.

T1 sequence (O00311 whole entry): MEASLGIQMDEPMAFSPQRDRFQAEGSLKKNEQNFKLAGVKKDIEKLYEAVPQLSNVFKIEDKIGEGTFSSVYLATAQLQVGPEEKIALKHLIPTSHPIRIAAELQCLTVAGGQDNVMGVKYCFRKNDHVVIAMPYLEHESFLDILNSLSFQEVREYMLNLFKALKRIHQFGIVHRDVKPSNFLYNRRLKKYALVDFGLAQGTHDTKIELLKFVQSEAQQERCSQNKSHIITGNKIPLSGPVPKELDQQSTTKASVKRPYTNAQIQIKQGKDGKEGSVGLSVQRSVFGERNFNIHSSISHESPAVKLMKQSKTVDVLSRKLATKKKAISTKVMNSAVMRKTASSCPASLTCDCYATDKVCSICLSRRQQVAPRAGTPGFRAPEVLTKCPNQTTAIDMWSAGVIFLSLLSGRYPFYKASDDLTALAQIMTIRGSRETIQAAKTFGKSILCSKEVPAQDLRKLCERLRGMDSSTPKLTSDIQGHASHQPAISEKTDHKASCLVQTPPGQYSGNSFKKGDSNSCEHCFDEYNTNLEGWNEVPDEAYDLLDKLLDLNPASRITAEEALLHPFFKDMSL
T1 sequence (Q9UBU7 whole entry partner): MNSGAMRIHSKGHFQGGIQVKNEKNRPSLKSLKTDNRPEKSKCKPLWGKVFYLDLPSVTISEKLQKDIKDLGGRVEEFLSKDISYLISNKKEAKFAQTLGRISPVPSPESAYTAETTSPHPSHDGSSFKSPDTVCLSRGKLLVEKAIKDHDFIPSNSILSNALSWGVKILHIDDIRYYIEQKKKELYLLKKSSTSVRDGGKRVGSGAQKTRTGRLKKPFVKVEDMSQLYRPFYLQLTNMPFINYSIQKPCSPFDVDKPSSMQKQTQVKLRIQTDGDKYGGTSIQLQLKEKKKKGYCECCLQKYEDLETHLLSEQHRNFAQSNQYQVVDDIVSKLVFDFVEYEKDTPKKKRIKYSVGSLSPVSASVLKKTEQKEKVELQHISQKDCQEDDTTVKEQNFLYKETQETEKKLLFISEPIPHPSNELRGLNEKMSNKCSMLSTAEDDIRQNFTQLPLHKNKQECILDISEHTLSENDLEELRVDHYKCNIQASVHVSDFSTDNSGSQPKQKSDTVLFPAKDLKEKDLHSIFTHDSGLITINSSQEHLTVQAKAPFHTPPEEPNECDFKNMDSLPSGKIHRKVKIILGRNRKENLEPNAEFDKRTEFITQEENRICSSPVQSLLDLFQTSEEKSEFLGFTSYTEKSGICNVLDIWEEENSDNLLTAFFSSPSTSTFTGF

Row | Compound | Ki [nM]
1 | Clc1cc(-c2c[nH]c3ncc(-c4ccsc4)cc23)cc(NC2CCCCC2)n1 [Example 215, 6-chloro-N-cyclohexyl-4-[5-(thiophen-3-yl)-1H-pyrrolo[2,3-b]pyridin-3-yl]pyridin-2-amine] | 10 to 100
2 | COc1cnc2[nH]cc(-c3cc(Cl)nc(N[C@H]4CC[C@H](NS(C)(=O)=O)CC4)c3)c2c1 [Example 220, N-(trans-4-{[6-chloro-4-(5-methoxy-1H-pyrrolo[2,3-b]pyridin-3-yl)pyridin-2-yl]amino}cyclohexyl)methanesulfonamide] | < 10
3 | CN1CCN(Cc2cccc(-c3cnc4[nH]cc(-c5cc(Cl)nc(NC6CCCCC6)c5)c4c3)c2)CC1 [Example 221, 6-chloro-N-cyclohexyl-4-(5-{3-[(4-methylpiperazin-1-yl)methyl]phenyl}-1H-pyrrolo[2,3-b]pyridin-3-yl)pyridin-2-amine] | < 10
4 | NS(=O)(=O)c1cccc(-c2cnc3[nH]cc(-c4cc(Cl)nc(NC5CCCCC5)c4)c3c2)c1 [Example 222, 3-{3-[2-chloro-6-(cyclohexylamino)pyridin-4-yl]-1H-pyrrolo[2,3-b]pyridin-5-yl}benzenesulfonamide] | < 10
5 | NS(=O)(=O)c1ccc(-c2cnc3[nH]cc(-c4cc(Cl)nc(NC5CCCCC5)c4)c3c2)cc1 [Example 223, 4-{3-[2-chloro-6-(cyclohexylamino)pyridin-4-yl]-1H-pyrrolo[2,3-b]pyridin-5-yl}benzenesulfonamide] | < 10
6 | CCOc1cnc2[nH]cc(-c3cc(Cl)nc(N[C@H]4CC[C@H](N)CC4)c3)c2c1 [Example 224, trans-N-[6-chloro-4-(5-ethoxy-1H-pyrrolo[2,3-b]pyridin-3-yl)pyridin-2-yl]cyclohexane-1,4-diamine] | < 10
7 | Nc1cnc2[nH]cc(-c3cc(Cl)nc(NC4CCCCC4)c3)c2c1 [Example 225, 3-[2-chloro-6-(cyclohexylamino)pyridin-4-yl]-1H-pyrrolo[2,3-b]pyridin-5-amine] | < 10
8 | CC(=O)Nc1cnc2[nH]cc(-c3cc(Cl)nc(NC4CCCCC4)c3)c2c1 [Example 226, N-{3-[2-chloro-6-(cyclohexylamino)pyridin-4-yl]-1H-pyrrolo[2,3-b]pyridin-5-yl}acetamide] | < 10
9 | CNCC(=O)N[C@H]1CC[C@H](Nc2cc(-c3c[nH]c4ncc(OC)cc34)cc(Cl)n2)CC1 [Example 227, N-(trans-4-{[6-chloro-4-(5-methoxy-1H-pyrrolo[2,3-b]pyridin-3-yl)pyridin-2-yl]amino}cyclohexyl)-N^2-methylglycinamide] | < 10
10 | COc1cnc2[nH]cc(-c3cc(Cl)nc(N[C@H]4CC[C@H](NC(=O)C(C)C)CC4)c3)c2c1 [Example 228, N-(trans-4-{[6-chloro-4-(5-methoxy-1H-pyrrolo[2,3-b]pyridin-3-yl)pyridin-2-yl]amino}cyclohexyl)-2-methylpropanamide] | < 10
11 | O=C(CN1CCN(c2ccc(F)cc2)CC1)N[C@H]1CC[C@H](Nc2cc(-c3c[nH]c4ncccc34)cc(Cl)n2)CC1 [Example 229, N-(trans-4-{[6-chloro-4-(1H-pyrrolo[2,3-b]pyridin-3-yl)pyridin-2-yl]amino}cyclohexyl)-2-[4-(4-fluorophenyl)piperazin-1-yl]acetamide] | < 10
12 | O=C(CN1CCN(c2ccncc2)CC1)N[C@H]1CC[C@H](Nc2cc(-c3c[nH]c4ncccc34)cc(Cl)n2)CC1 [Example 230, N-(trans-4-{[6-chloro-4-(1H-pyrrolo[2,3-b]pyridin-3-yl)pyridin-2-yl]amino}cyclohexyl)-2-[4-(pyridin-4-yl)piperazin-1-yl]acetamide] | < 10
13 | O=C(CN1CCN(C2CCCCC2)CC1)N[C@H]1CC[C@H](Nc2cc(-c3c[nH]c4ncccc34)cc(Cl)n2)CC1 [Example 231, N-(trans-4-{[6-chloro-4-(1H-pyrrolo[2,3-b]pyridin-3-yl)pyridin-2-yl]amino}cyclohexyl)-2-(4-cyclohexylpiperazin-1-yl)acetamide] | < 10
14 | CCCCN1CCN(CC(=O)N[C@H]2CC[C@H](Nc3cc(-c4c[nH]c5ncccc45)cc(Cl)n3)CC2)CC1 [Example 232, 2-(4-butylpiperazine-1-yl)-N-(trans-4-{[6-chloro-4-(1H-pyrrolo[2,3-b]pyridin-3-yl)pyridin-2-yl]amino}cyclohexyl)acetamide] | < 10
15 | O=C(CN1CCN(C(=O)c2ccco2)CC1)N[C@H]1CC[C@H](Nc2cc(-c3c[nH]c4ncccc34)cc(Cl)n2)CC1 [Example 233, N-(trans-4-{[6-chloro-4-(1H-pyrrolo[2,3-b]pyridin-3-yl)pyridin-2-yl]amino}cyclohexyl)-2-[4-(furan-2-ylcarbonyl)piperazin-1-yl]acetamide] | < 10
16 | N#Cc1ccccc1N1CCN(CC(=O)N[C@H]2CC[C@H](Nc3cc(-c4c[nH]c5ncccc45)cc(Cl)n3)CC2)CC1 [Example 234, N-(trans-4-{[6-chloro-4-(1H-pyrrolo[2,3-b]pyridin-3-yl)pyridin-2-yl]amino}cyclohexyl)-2-[4-(2-cyanophenyl)piperazin-1-yl]acetamide] | < 10
17 | O=C(O)c1cnc2[nH]cc(-c3cc(Cl)nc(NC4CCCCC4)c3)c2c1 [Example 235, 3-[2-chloro-6-(cyclohexylamino)pyridin-4-yl]-1H-pyrrolo[2,3-b]pyridine-5-carboxylic acid] | < 10
18 | COc1cnc2[nH]cc(-c3cc(Cl)nc(NC4CCC(C5CCNCC5)CC4)c3)c2c1 (stereo not shown) [Example 236, 6-chloro-4-(5-methoxy-1H-pyrrolo[2,3-b]pyridin-3-yl)-N-[4-(piperidin-4-yl)cyclohexyl]pyridin-2-amine] | < 10
19 | COc1cnc2[nH]cc(-c3cc(Cl)nc(NC4CCC(CC5CCC(N)CC5)CC4)c3)c2c1 (stereo not shown) [Example 237, N-{4-[(4-aminocyclohexyl)methyl]cyclohexyl}-6-chloro-4-(5-methoxy-1H-pyrrolo[2,3-b]pyridin-3-yl)pyridin-2-amine] | < 10
20 | COc1cnc2[nH]cc(-c3cc(Cl)nc(NC4CCC(CC5CCC(NC6CCCCC6)CC5)CC4)c3)c2c1 (stereo not shown) [Example 238, 6-chloro-N-(4-{[4-(cyclohexylamino)cyclohexyl]methyl}cyclohexyl)-4-(5-methoxy-1H-pyrrolo[2,3-b]pyridin-3-yl)pyridin-2-amine] | < 10
21 | Clc1cc(-c2c[nH]c3ncc(Nc4ccccc4)cc23)cc(NC2CCCCC2)n1 [Example 239, 3-[2-chloro-6-(cyclohexylamino)pyridin-4-yl]-N-phenyl-1H-pyrrolo[2,3-b]pyridin-5-amine] | 10 to 100

Now from value to molecule:

Row | Ki [nM] | Compound
22 | < 10 | C=CCNC(=O)NCCS(=O)(=O)N[C@H]1CC[C@H](Nc2cc(-c3c[nH]c4ncccc34)cc(Cl)n2)CC1 [Example 208, N-(trans-4-{[6-chloro-4-(1H-pyrrolo[2,3-b]pyridin-3-yl)pyridin-2-yl]amino}cyclohexyl)-2-[(prop-2-en-1-ylcarbamoyl)amino}ethanesulfonamide]
23 | < 10 | O=C(N[C@H]1CC[C@H](Nc2cc(-c3c[nH]c4ncccc34)cc(Cl)n2)CC1)C1CN(Cc2cccnc2)C1 [Example 209, N-(trans-4-{[6-chloro-4-(1H-pyrrolo[2,3-b]pyridin-3-yl)pyridin-2-yl]amino}cyclohexyl)-1-(pyridin-3-ylmethyl)azetidine-3-carboxamide]
24 | < 10 | O=C(N[C@H]1CC[C@H](Nc2cc(-c3c[nH]c4ncccc34)cc(Cl)n2)CC1)C1CN(Cc2ccc(F)cc2F)C1 [Example 210, N-(trans-4-{[6-chloro-4-(1H-pyrrolo[2,3-b]pyridin-3-yl)pyridin-2-yl]amino}cyclohexyl)-1-(2,4-difluorobenzyl)azetidine-3-carboxamide]
25 | < 10 | Cn1ccc(CN2CC(C(=O)N[C@H]3CC[C@H](Nc4cc(-c5c[nH]c6ncccc56)cc(Cl)n4)CC3)C2)n1 [Example 211, N-(trans-4-{[6-chloro-4-(1H-pyrrolo[2,3-b]pyridin-3-yl)pyridin-2-yl]amino}cyclohexyl)-1-[(1-methyl-1H-pyrazol-3-yl)methyl]azetidine-3-carboxamide]
26 | < 10 | OCCn1cc(-c2cnc3[nH]cc(-c4cc(Cl)nc(NC5CCCCC5)c4)c3c2)cn1 [Example 212, 2-(4-{3-[2-chloro-6-(cyclohexylamino)pyridin-4-yl]-1H-pyrrolo[2,3-b]pyridin-5-yl}-1H-pyrazol-1-yl)ethanol]
27 | < 10 | COc1cnc2[nH]cc(-c3cc(Cl)nc(N[C@H]4CC[C@H](N)CC4)c3)c2c1 [Example 213, trans-N-[6-chloro-4-(5-methoxy-1H-pyrrolo[2,3-b]pyridin-3-yl)pyridin-2-yl]cyclohexane-1,4-diamine]
28 | < 10 | Clc1cc(-c2c[nH]c3ncc(-c4cccnc4)cc23)cc(NC2CCCCC2)n1 [Example 214, 6-chloro-N-cyclohexyl-4-[5-(pyridin-3-yl)-1H-pyrrolo[2,3-b]pyridin-3-yl]pyridin-2-amine]
29 | < 10 | COc1cnc2[nH]cc(-c3cc(Cl)nc(N[C@H]4CC[C@H](NC(=O)C5CC5)CC4)c3)c2c1 [Example 216, N-(trans-4-{[6-chloro-4-(5-methoxy-1H-pyrrolo[2,3-b]pyridin-3-yl)pyridin-2-yl]amino}cyclohexyl)cyclopropanecarboxamide]
30 | < 10 | COc1cnc2[nH]cc(-c3cc(Cl)nc(N[C@H]4CC[C@H](NC(=O)C5CN(Cc6ccccc6)C5)CC4)c3)c2c1 [Example 217, 1-benzyl-N-(trans-4-{[6-chloro-4-(5-methoxy-1H-pyrrolo[2,3-b]pyridin-3-yl)pyridin-2-yl]amino}cyclohexyl)azetidine-3-carboxamide]
31 | < 10 | COc1cnc2[nH]cc(-c3cc(Cl)nc(N[C@H]4CC[C@H](NS(=O)(=O)C5CC5)CC4)c3)c2c1 [Example 218, N-(trans-4-{[6-chloro-4-(5-methoxy-1H-pyrrolo[2,3-b]pyridin-3-yl)pyridin-2-yl]amino}cyclohexyl)cyclopropanesulfonamide]
